From the Kinase Knowledgebase extract (Sharma et al. 2016)

Experiments:
PIK3CA (human) = PIK3CA (human) (UniProt P42336); experiment: Enzyme Assay
PIK3CD (Human) = PIK3CD (Human) (UniProt O00329); experiment: Enzyme Assay
Chain of PIK3CD (Human) (O00329 whole entry, looked up): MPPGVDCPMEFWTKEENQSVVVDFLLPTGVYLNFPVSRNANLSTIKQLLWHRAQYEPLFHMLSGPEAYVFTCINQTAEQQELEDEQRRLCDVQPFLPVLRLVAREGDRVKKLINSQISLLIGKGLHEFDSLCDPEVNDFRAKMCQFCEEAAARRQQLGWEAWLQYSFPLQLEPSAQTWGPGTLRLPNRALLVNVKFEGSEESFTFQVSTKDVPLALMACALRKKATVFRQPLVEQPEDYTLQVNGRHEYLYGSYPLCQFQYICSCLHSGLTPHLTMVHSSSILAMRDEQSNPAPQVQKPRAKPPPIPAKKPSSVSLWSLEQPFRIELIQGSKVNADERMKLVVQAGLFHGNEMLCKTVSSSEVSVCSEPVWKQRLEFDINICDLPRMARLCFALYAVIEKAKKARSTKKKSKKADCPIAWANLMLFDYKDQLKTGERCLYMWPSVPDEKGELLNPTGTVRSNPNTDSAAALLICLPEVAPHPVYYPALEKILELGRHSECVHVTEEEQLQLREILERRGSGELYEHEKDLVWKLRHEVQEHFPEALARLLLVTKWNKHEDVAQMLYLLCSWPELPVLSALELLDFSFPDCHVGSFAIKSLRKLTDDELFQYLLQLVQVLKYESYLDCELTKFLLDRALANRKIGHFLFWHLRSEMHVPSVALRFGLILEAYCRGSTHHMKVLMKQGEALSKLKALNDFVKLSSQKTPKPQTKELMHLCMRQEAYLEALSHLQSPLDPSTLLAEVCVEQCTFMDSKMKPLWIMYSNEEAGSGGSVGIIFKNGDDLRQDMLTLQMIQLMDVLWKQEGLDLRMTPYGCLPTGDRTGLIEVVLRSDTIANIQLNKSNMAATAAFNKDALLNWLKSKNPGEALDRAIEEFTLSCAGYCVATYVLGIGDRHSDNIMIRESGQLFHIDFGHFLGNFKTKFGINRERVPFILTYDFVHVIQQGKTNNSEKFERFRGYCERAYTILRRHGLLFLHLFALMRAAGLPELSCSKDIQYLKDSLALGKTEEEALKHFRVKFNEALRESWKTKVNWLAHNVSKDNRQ

Chain of PIK3CA (human) (P42336 whole entry, looked up): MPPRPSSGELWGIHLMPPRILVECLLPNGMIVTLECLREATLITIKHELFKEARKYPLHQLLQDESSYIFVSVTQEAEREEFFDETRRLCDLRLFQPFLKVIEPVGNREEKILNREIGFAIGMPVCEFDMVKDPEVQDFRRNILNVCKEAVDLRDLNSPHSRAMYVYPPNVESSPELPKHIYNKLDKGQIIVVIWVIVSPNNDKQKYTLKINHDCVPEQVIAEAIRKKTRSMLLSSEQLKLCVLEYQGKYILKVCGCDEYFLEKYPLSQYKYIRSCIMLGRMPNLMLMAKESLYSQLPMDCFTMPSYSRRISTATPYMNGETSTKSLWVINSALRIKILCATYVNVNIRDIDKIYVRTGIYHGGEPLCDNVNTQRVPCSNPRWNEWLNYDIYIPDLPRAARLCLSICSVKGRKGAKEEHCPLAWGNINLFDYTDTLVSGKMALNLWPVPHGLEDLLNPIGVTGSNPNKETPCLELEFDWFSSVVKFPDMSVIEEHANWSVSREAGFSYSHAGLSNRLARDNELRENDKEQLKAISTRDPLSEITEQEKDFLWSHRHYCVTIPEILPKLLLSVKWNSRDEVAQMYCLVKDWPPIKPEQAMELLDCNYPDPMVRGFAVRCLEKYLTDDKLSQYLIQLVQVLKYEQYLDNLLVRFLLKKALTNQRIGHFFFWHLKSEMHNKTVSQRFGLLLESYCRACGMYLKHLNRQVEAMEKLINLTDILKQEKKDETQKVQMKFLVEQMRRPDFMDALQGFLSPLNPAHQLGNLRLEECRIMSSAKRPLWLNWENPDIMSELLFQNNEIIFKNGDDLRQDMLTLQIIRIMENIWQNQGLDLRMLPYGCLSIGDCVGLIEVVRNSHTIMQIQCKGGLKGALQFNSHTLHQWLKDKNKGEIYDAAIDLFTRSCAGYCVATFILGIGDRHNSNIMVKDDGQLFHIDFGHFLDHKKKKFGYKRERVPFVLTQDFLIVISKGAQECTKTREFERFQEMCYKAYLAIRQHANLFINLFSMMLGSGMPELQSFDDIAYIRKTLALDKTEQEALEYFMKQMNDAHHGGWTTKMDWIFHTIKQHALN

SMILES: Cc1ccccc1-n1c(Cn2nc(-c3cc(O)cc(F)c3)c3c(N)ncnc32)cc2ccccc2c1=O
- IC50 (PIK3CA (human)): > 10000 nM

SMILES: Cc1cccc2cc(Cn3nc(-c4ccc5oc(N)nc5c4)c4c(N)ncnc43)n(-c3ccccc3)c(=O)c12
- IC50 (PIK3CD (Human)): < 100 nM

SMILES: Cc1ccccc1-n1c(Cn2nc(-c3ccc(Cl)c(O)c3)c3c(N)ncnc32)cc2cccc(C)c2c1=O
- IC50 (PIK3CA (human)): > 10000 nM

SMILES: Cc1cccc2cc(C(C)Nc3ncnc4[nH]cnc34)n(-c3ccccc3)c(=O)c12 (stereo not drawn)
- IC50 (PIK3CD (Human)): < 100 nM

SMILES: Cc1ccccc1-n1c(Cn2nc(CO)c3c(N)ncnc32)cc2cccc(C)c2c1=O
- IC50 (PIK3CD (Human)): 100 to 1000 nM
- IC50 (PIK3CA (human)): > 10000 nM

SMILES: Cc1cccc2cc([C@H](C)Nc3ncnc4[nH]ccc34)n(-c3ccccc3)c(=O)c12
- IC50 (PIK3CD (Human)): < 100 nM
- IC50 (PIK3CA (human)): > 10000 nM

SMILES: Cc1cccnc1-n1c(Cn2nc(Br)c3c(N)ncnc32)cc2cccc(C)c2c1=O
- IC50 (PIK3CD (Human)): 100 to 1000 nM
- IC50 (PIK3CA (human)): > 10000 nM

SMILES: CCc1nn(Cc2cc3cccc(C)c3c(=O)n2-c2ccccc2)c2ncnc(N)c12
- IC50 (PIK3CD (Human)): < 100 nM

SMILES: Cc1cccc2cc([C@H](C)Nc3ncnc4[nH]cnc34)n(C3CCC3)c(=O)c12
- IC50 (PIK3CD (Human)): < 100 nM

SMILES: Cc1cccc2cc([C@H](C)NC(=O)c3cnn4ccccc34)n(-c3ccccc3)c(=O)c12
- IC50 (PIK3CD (Human)): > 10000 nM
- IC50 (PIK3CA (human)): > 10000 nM

SMILES: Cc1cccc2cc(Cn3nc(-c4ccc5nc(N)[nH]c5c4)c4c(N)ncnc43)n(-c3ccccc3)c(=O)c12
- IC50 (PIK3CD (Human)): < 100 nM

SMILES: Cc1ccccc1-n1c(Cn2nc(-c3ccc4nc(N)oc4c3)c3c(N)ncnc32)cc2cccc(C)c2c1=O
- IC50 (PIK3CD (Human)): < 100 nM

SMILES: Cc1cccnc1-n1c(Cn2nc(-c3ccc4oc(N)nc4c3)c3c(N)ncnc32)cc2cccc(C)c2c1=O
- IC50 (PIK3CD (Human)): < 100 nM

SMILES: Cc1cccc2cc(Cn3nc(-c4ccc(F)c(O)c4)c4c(N)ncnc43)n(C(C)C)c(=O)c12
- IC50 (PIK3CA (human)): > 10000 nM

SMILES: Cc1cccc2cc(C(C)Nc3ncnc4[nH]cnc34)n(C3CCCC3)c(=O)c12 (stereo not drawn)
- IC50 (PIK3CD (Human)): < 100 nM

SMILES: COc1ccccc1-n1c(Cn2nc(-c3cccc(O)c3)c3c(N)ncnc32)cc2cccc(C)c2c1=O
- IC50 (PIK3CA (human)): > 10000 nM

SMILES: Cc1cccc2cc(Cn3nc(-c4cc(O)cc(F)c4)c4c(N)ncnc43)n(C3CCCCC3)c(=O)c12
- IC50 (PIK3CA (human)): > 10000 nM

SMILES: Cc1cccc2cc(Cn3nc(I)c4c(N)ncnc43)n(C3CCCC3)c(=O)c12
- IC50 (PIK3CD (Human)): 100 to 1000 nM

SMILES: Cc1ccccc1-n1c(C(C)Nc2ncnc3[nH]cnc23)cc2cccc(C)c2c1=O (stereo not drawn)
- IC50 (PIK3CA (human)): > 10000 nM

SMILES: Cc1cccc2cc(Cn3nc(-c4cc(O)cc(F)c4)c4c(N)ncnc43)n(-c3ccccc3)c(=O)c12
- IC50 (PIK3CA (human)): 100 to 1000 nM

SMILES: Cc1ccccc1-n1c(Cn2nc(-c3nn[nH]n3)c3c(N)ncnc32)cc2cccc(C)c2c1=O
- IC50 (PIK3CD (Human)): < 100 nM

SMILES: Cc1ccccc1-n1c(Cn2nc(C(=O)O)c3c(N)ncnc32)cc2cccc(C)c2c1=O
- IC50 (PIK3CD (Human)): 100 to 1000 nM

SMILES: Cc1ccccc1-n1c(Cn2nc(I)c3c(N)ncnc32)cc2cccc(C)c2c1=O
- IC50 (PIK3CA (human)): > 10000 nM

SMILES: Cc1cccc2cc(Cn3nc(-c4cccc(O)c4)c4c(N)ncnc43)n(-c3ccccc3Cl)c(=O)c12
- IC50 (PIK3CA (human)): > 10000 nM

SMILES: Cc1cccc2cc(Cn3nc(-c4cccc(O)c4)c4c(N)ncnc43)n(-c3ccccc3O)c(=O)c12
- IC50 (PIK3CA (human)): > 10000 nM

SMILES: Cc1ccccc1-n1c(Cn2nc(-c3cccc(O)c3)c3c(N)ncnc32)cc2cccc(C)c2c1=O
- IC50 (PIK3CA (human)): > 10000 nM

SMILES: Cc1cccc2cc(Cn3nc(C(C)(C)O)c4c(N)ncnc43)n(-c3ccccc3)c(=O)c12
- IC50 (PIK3CD (Human)): > 10000 nM
- IC50 (PIK3CA (human)): > 10000 nM

SMILES: Cc1cccc2cc(Cn3nc(C(N)=O)c4c(N)ncnc43)n(-c3ccccc3)c(=O)c12
- IC50 (PIK3CD (Human)): 100 to 1000 nM

SMILES: Cc1ccccc1-n1c(Cn2nc(-c3ccc(O)c(F)c3)c3c(N)ncnc32)cc2cccc(C)c2c1=O
- IC50 (PIK3CA (human)): > 10000 nM

SMILES: Cc1cccc2cc([C@H](C)Nc3nc(N)ncc3C(F)(F)F)n(-c3ccccc3)c(=O)c12
- IC50 (PIK3CD (Human)): < 100 nM
- IC50 (PIK3CA (human)): > 10000 nM

SMILES: Cc1ccccc1-n1c(Cn2nc(-c3ccc4nc(N)[nH]c4c3)c3c(N)ncnc32)cc2cccc(C)c2c1=O
- IC50 (PIK3CD (Human)): < 100 nM

SMILES: Nc1ncnc2c1c(-c1cccc(O)c1)nn2Cc1cc2cccc(F)c2c(=O)n1-c1ccccc1F
- IC50 (PIK3CD (Human)): 100 to 1000 nM

SMILES: CC(Nc1ncnc2[nH]cnc12)c1cc2ccccc2c(=O)n1C1CCN(C)CC1 (stereo not drawn)
- IC50 (PIK3CD (Human)): 100 to 1000 nM

SMILES: CCC(Nc1ncnc2[nH]cnc12)c1cc2cccc(C)c2c(=O)n1-c1ccc(F)cc1 (stereo not drawn)
- IC50 (PIK3CD (Human)): < 100 nM

SMILES: Cc1cccc2cc(C(C)Nc3ncnc4[nH]cnc34)n(CCN3CCOCC3)c(=O)c12 (stereo not drawn)
- IC50 (PIK3CD (Human)): < 100 nM

SMILES: Cc1cccc2cc(Cn3nc(C#CC4CC4)c4c(N)ncnc43)n(-c3ccccc3F)c(=O)c12
- IC50 (PIK3CD (Human)): 100 to 1000 nM

SMILES: Cc1cccc2cc(Cn3nc(-c4ccc5nc(N)cn5c4)c4c(N)ncnc43)n(-c3ccccc3)c(=O)c12
- IC50 (PIK3CD (Human)): 100 to 1000 nM
- IC50 (PIK3CA (human)): > 10000 nM

SMILES: Cc1ccccc1-n1c(Cn2nc(C=CC(N)=O)c3c(N)ncnc32)cc2cccc(C)c2c1=O
- IC50 (PIK3CA (human)): > 10000 nM

SMILES: Cc1cccc2cc([C@H](C)Nc3ncnc4[nH]cnc34)n(-c3ccccc3)c(=O)c12
- IC50 (PIK3CD (Human)): < 100 nM

SMILES: COCc1nn(Cc2cc3cccc(C)c3c(=O)n2-c2ccccc2C)c2ncnc(N)c12
- IC50 (PIK3CD (Human)): > 10000 nM
- IC50 (PIK3CA (human)): > 10000 nM

SMILES: Cc1ccccc1-n1c(Cn2nc(-c3ccc4nc(N)ccc4c3)c3c(N)ncnc32)cc2cccc(C)c2c1=O
- IC50 (PIK3CA (human)): 100 to 1000 nM

SMILES: Cc1ccccc1-n1c(Cn2nc(-c3cn[nH]c3)c3c(N)ncnc32)cc2cccc(C)c2c1=O
- IC50 (PIK3CA (human)): > 10000 nM

SMILES: CC(=O)Nc1nc2ccc(-c3nn(Cc4cc5cccc(C)c5c(=O)n4-c4ccccc4)c4ncnc(N)c34)cc2s1
- IC50 (PIK3CA (human)): 100 to 1000 nM

SMILES: CNC(=O)c1nn(Cc2cc3cccc(C)c3c(=O)n2-c2ccccc2)c2ncnc(N)c12
- IC50 (PIK3CD (Human)): 100 to 1000 nM
- IC50 (PIK3CA (human)): > 10000 nM
